# Laboratory results taken from patent US9567578B1, “Cell line containing a knockout of the glutamine synthetase (GS) gene and a method of producing target proteins using a GS knockout HEK293 cell line” (Korea Advanced Institute of Science and Technology, priority 2016, dated 2017).
# Where two headings read alike, the source gives them in different places.
# Columns and labels:
# [1] = system: HEK293 cell line; conditions: glutamine-free EX-CELL 293 SFM, MSX 0-1000 μM, suspension culture
# Description: The cell growth rate and the cell viability were investigated in the course of culture of HEK293 cell line with the addition of different concentrations of MSX.
# Particularly, HEK293 host cells were inoculated in 50 ml of the glutamine-free EX-CELL® 293 SFM medium (Sigma), and also inoculated in the control medium supplemented with 4 mM glutamine. To the experimental group, MSX, the glutamine synthetase inhibitor, was added at the concentrations of 0 μM, 100 μM, 300 μM, 500 μM, and 1000 μM, respectively. The cell mixture was inoculated in Erlenmeyer flask at the density of 3×10^5 cells/ml, followed by suspension culture. 1 ml of the cell culture fluid was taken from each flask every 24 hours, followed by investigation of the cell concentration and the cell viability.
# [2] = system: HEK293_GS-KO host cell line; conditions: glutamine-free selection medium
# Description: (§1) First, the cells were inoculated in T-25 flask containing 5 ml of DMEM supplemented with 1×GSEM, 7% (v/v) FBS and glutamine at the density of 4×10^5 cells/ml. 24 hours later, when the cultured cells reached 90% of confluency in the flask, the vector containing a target protein gene mixed with liposome was additionally added to the gs gene knockout HEK293 cell line prepared in Experimental Example 1. 24 hours later, the selection marker protein (GS) inhibitor MSX was treated to the selection medium (glutamine-free DMEM supplemented with 1×GSEM and 10% (v/v) dFBS) at the concentrations of 0 μM, 25 μM, 50 μM, and 100 μM. The cells introduced with the vector were inoculated in the 96 well plate by 200 μl/well. The wild type HEK293 host cell line was also introduced with a target protein gene by the same manner as described above, followed by the selection from the 96 well plate. The cell concentration for the inoculation into the 96 well plate was determined by the concentration at which only one clone would survive after 3 weeks of selection period. To select the MSX resistant cell line (transformed cell line), the cells showing MSX resistance could be collected as a pool or prepared as each individual clone and herein the cell line was collected as an individual clone.
# (§2) In the table above, “survival rate” was obtained by dividing the number of all the wells containing the cell by the number of the total inoculated wells.
# (§3) The cells inoculated in a 96 well plate were observed under microscope and the medium was replaced every 5˜7 days. […] The collected cells were inoculated in a 48 well plate (500 μl). When the cells were grown in the well, the cells were inoculated again in a 24 well plate (1 ml). When the cells were fully grown in the 24 well plate, the cells were collected and inoculated in another 24 well plate containing 1 ml of culture medium at the density of 1×10^5 cells/ml. To quantify the production of the target protein, batch culture was performed for 6 days. On the 6th day, the medium was collected and ELISA was performed with the target protein to measure the productivity of each clone. By the method above, 50 clones originated from the gs knockout HEK93 cell line were constructed each in the presence of 0 μM, 25 μM, and 50 μM of MSX. 50 control clones originated from the wild type HEK293 cell line were also constructed for comparison.
# (§4) In the Table above, “selection efficiency” indicates the portion of high production clones (those clones that could produce a target protein at least 1 μg/μl until the 6th day) in 50 constructed clones at each condition.
# [3] = system: wild type HEK293 host cell line; conditions: glutamine-free selection medium
# Description: as §1, §2, §3, §4
smiles,measurement,setting,value
"CS(=N)(=O)CC[C@H](N)C(=O)O (stereo partly shown) [MSX, methionine sulfoximine]",resistance against MSX (cell growth and cell viability),[1],high resistance
same,Survival rate,"[2]; MSX 25 μM, inoculation 2000 cells/96 well",11.9%
same,Survival rate,"[2]; MSX 50 μM, inoculation 2000 cells/96 well",2.3%
same,Survival rate,"[2]; MSX 100 μM, inoculation 5000 cells/96 well",0.5%
same,Survival rate,"[3]; MSX 25 μM, inoculation 1 cells/96 well",22.9%
same,Survival rate,"[3]; MSX 50 μM, inoculation 10 cells/96 well",28.1%
same,Survival rate,"[3]; MSX 100 μM, inoculation 500 cells/96 well",75.8%
